Test results taken from PubChem BioAssay (NCI).
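Where inhibition never reached the appropriate level, the endpoint shown equals the highest concentration tested. Otherwise, values were interpolated linearly from a five-concentration, 48-hour dose response in 96-well plates. The concentration for full growth arrest is given as TGI.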 Where a SMILES comes first, the peptide text is derived from it. [ ]: non-standard residue; d: D form. pGlu = O=C1CC[CH](C(=O)O)N1; Thz = O=C(O)[CH]1CSCN1

Assays:
Assay in all cases: growth of human tumour cells (NCI), 48 h
SN12C renal = test system: SN12C renal
SK-OV-3 ovarian = test system: SK-OV-3 ovarian
RPMI-8226 leukemia = test system: RPMI-8226 leukemia
SF-268 CNS = test system: SF-268 CNS
COLO 205 colon = test system: COLO 205 colon
TK-10 renal = test system: TK-10 renal
EKVX NSCLC = test system: EKVX NSCLC
OVCAR-8 ovarian = test system: OVCAR-8 ovarian
MALME-3M melanoma = test system: MALME-3M melanoma
K-562 leukemia = test system: K-562 leukemia

| Compound | TGI (SN12C renal) [µM] | TGI (SK-OV-3 ovarian) [µM] | TGI (RPMI-8226 leukemia) [µM] | TGI (SF-268 CNS) [µM] | TGI (COLO 205 colon) [µM] | TGI (TK-10 renal) [µM] | TGI (EKVX NSCLC) [µM] | TGI (OVCAR-8 ovarian) [µM] | TGI (MALME-3M melanoma) [µM] | TGI (K-562 leukemia) [µM] |
| --- | --- | --- | --- | --- | --- | --- | --- | --- | --- | --- |
| Cc1nc(OCc2ccccc2)c2ncn(CCO)c2n1 | > 100 | > 100 | > 100 | > 100 | > 100 | > 100 |  |  |  |  |
| CC(C)(C)C1=C(Br)C(F)(C(C)(C)C)OP1(=O)c1ccccc1 (stereo unspecified) | 29.5 | 32.2 |  | 36.2 | 29.4 | 33.1 | 33.6 | 36.4 | 32 | 22.9 |
| CCCn1cc2c(=O)[nH]c(SC)nc2n1 | > 100 |  | > 100 | > 100 | > 100 | > 100 | > 100 | > 100 | > 100 |  |
| C=C1C2CCC3C4(C)CCCC(C)(C(=O)O)C4CCC3(C2)C1OC(=O)/C(C)=C/C (stereo unspecified) | 62.6 | 70.2 |  | > 100 | 82.1 | > 100 | > 100 | > 100 | > 100 |  |
| Nc1nc(Cl)cc(NCC2(CCO)CCC2)n1 | > 100 | > 100 | > 100 |  |  | > 100 | > 100 | > 100 | > 100 | > 100 |
| COC(NC(=O)Nc1ccc(C)cc1)(C(F)(F)F)C(F)(F)F | > 100 | 76.4 | 74.8 | > 100 | 36.8 | > 100 |  | 78.5 | > 100 | > 100 |
| COC(=O)c1cc2c(c(C(=O)OC)c1)CCC2 |  | > 100 | > 100 | > 100 |  | > 100 | > 100 | > 100 | > 100 | > 100 |
| C=C(/C=C/C=C(\C)CCC=C(C)C)[C@@H]1CC[C@]2([C@H](CCCO)/C(=C(/C)C=O)CC[C@]2(C)O)[C@@H]1O | 31.4 | > 100 |  | 41.8 | 26 | 66.2 | 44.1 | 46.5 | 29.8 | 30.9 |
| Cn1c(-c2ccco2)ccc1-c1ccc(C=O)o1 | > 100 | > 100 | > 100 |  | > 100 | > 100 | > 100 | > 100 | > 100 | > 100 |
| COc1ccc(/C=C2\N=C(N3CCCC(CO)C3)NC2=O)cc1 (stereo unspecified) | > 100 | > 100 | > 100 | > 100 | > 100 | > 100 | > 100 | > 100 | > 100 |  |
| CCOC(=O)C12CCC(=O)N1N(C)c1ncccc1N2 (stereo unspecified) |  | > 100 | > 100 | > 100 | > 100 | > 100 | > 100 | > 100 |  | > 100 |
| NCC(=O)Nc1ccccc1 | > 100 |  |  | > 100 |  | > 100 | > 100 | > 100 | > 100 | > 100 |
| COc1ccc(C(=O)/C=C/c2ccc(OCCCCCCCCCCOc3ccc(/C=C/C(=O)c4ccc(OC)cc4)cc3)cc2)cc1 | > 100 | > 100 | > 100 | > 100 | > 100 | > 100 | > 100 | > 100 |  | > 100 |
| Cc1cn(C2CC(n3cc(Cn4ccc(=O)[nH]c4=O)nn3)C(CO)O2)c(=O)[nH]c1=O (stereo unspecified) | > 100 | > 100 | > 100 | > 100 | > 100 | > 100 |  | > 100 |  |  |
| O=[N+]([O-])c1ccc(-c2csc(N=Nc3c(O)[nH]c4ccccc34)n2)cc1 | 96.5 | > 100 |  |  | > 100 | 35.6 | > 100 | 70 |  |  |
| OC1NC2Nc3ccccc3NC2NC1O (stereo unspecified) | > 100 | > 100 |  | > 100 | > 100 | > 100 | > 100 | > 100 | > 100 | > 100 |
| O=C1CCC(C(=O)N2CSCC2C(=O)O)N1 (stereo unspecified) ([pGlu]-[Thz]-OH; configuration not given here) | > 100 | > 100 | > 100 | > 100 |  | > 100 |  | > 100 | > 100 | > 100 |
| COc1ccc(/C=N\N(C)Cc2cccc3ccsc23)cc1 | > 100 | > 100 |  | > 100 | > 100 | > 100 | > 100 | > 100 | > 100 | > 100 |
